This note sets out measurements from ChEMBL document CHEMBL1201862, “PubChem BioAssay data set” (2004).

Among the test systems are SF-295; CAKI-1; SF-539; 786-0; UO-31; OVCAR-3; IGROV-1; A498; U-251; UACC-62; Malme-3M; RXF 393; SN12C; RPMI-8226; HCC 2998; ACHN; HL-60; SK-OV-3.
Holding throughout (test): NCI-60 cell line screen, 48 h

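Protocol summary: plate cells (96-well), add compound at 5 concentrations, incubate 48 h, interpolate endpoints linearly. GI50 marks 50% less growth.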 Activity calls are given as the source filed them. No stated cut-off is given here; in the data, active = GI50 up to about 1.1 µM and inactive = higher.

Regarding `[N-]=[N+]=Nc1ccc(S(=O)(=O)Oc2cc(OS(=O)(=O)c3ccc(N=[N+]=[N-])cc3)cc(OS(=O)(=O)c3ccc(N=[N+]=[N-])cc3)c2)cc1`, the GI50 in the assay with SF-295 was > 100 µM (inactive); in the assay with CAKI-1 it was > 10 µM (inactive); in the assay on SF-539, > 100 µM (inactive); with 786-0, > 100 µM (inactive); with UO-31, > 100 µM (inactive); in the assay on OVCAR-3 it was > 100 µM (inactive). The GI50 with IGROV-1, in the assay on A498, in the assay on U-251, in the assay on UACC-62, in the assay on Malme-3M and in the assay on RXF 393 was > 100 µM (inactive) in each case. Moreover, the GI50 is > 10 µM (inactive) with SN12C, > 100 µM (inactive) in the assay with RPMI-8226, > 100 µM (inactive) with HCC 2998 and > 10 µM (inactive) in the assay with ACHN.

As to `CCN(CC)CCCN(c1cc(OC)cc2nccnc12)S(=O)(=O)c1ccc(C)cc1`, the GI50 in the assay on SF-295, in the assay on CAKI-1, with SF-539, with 786-0, in the assay with UO-31 and in the assay on OVCAR-3 was > 100 µM (inactive) throughout. For the same compound, the GI50 with IGROV-1, with A498, with U-251, in the assay on HL-60, with UACC-62 and with Malme-3M was > 100 µM (inactive) in each case. The GI50 was 41.1 µM (inactive) in the assay on RXF 393; > 100 µM (inactive) in the assay on SN12C; > 100 µM (inactive) in the assay with RPMI-8226; > 100 µM (inactive) in the assay with HCC 2998; > 100 µM (inactive) with SK-OV-3; > 100 µM (inactive) with ACHN.

On to `C/C(=N/NC(=O)C[n+]1ccccc1)C(CN(CC(C)C)CC(C)C)C(=O)Nc1ccc(C)cc1C` (stereo unspecified), for which the GI50 in the assay with SF-539 is > 100 µM (inactive); in the assay on 786-0, > 100 µM (inactive); in the assay on UO-31 it was 15.1 µM (inactive); in the assay with IGROV-1, > 100 µM (inactive); in the assay with A498, 25.4 µM (inactive); in the assay on HL-60, 59.6 µM (inactive). For the same compound, the GI50 is > 100 µM (inactive) in the assay with UACC-62; > 100 µM (inactive) in the assay with Malme-3M; 61.2 µM (inactive) with RXF 393; 51.4 µM (inactive) in the assay with SN12C; 68.1 µM (inactive) in the assay on RPMI-8226; > 100 µM (inactive) in the assay with HCC 2998. The GI50 in the assay with SK-OV-3 was > 100 µM (inactive); in the assay on ACHN, 54.5 µM (inactive).

With `Cc1nsc2cc(Cl)n(C)c(=O)c12`, the GI50 in the assay on CAKI-1 is 40.4 µM (inactive); in the assay with SF-539 it was > 100 µM (inactive); in the assay on 786-0 it was > 100 µM (inactive); in the assay on UO-31, > 100 µM (inactive); in the assay on OVCAR-3, > 100 µM (inactive); in the assay with IGROV-1, > 100 µM (inactive). Also, the GI50 in the assay with A498, in the assay on U-251, in the assay on HL-60, in the assay with Malme-3M, with RXF 393 and in the assay with SN12C was > 100 µM (inactive) each time. The GI50 with RPMI-8226 is > 100 µM (inactive); in the assay with HCC 2998 it was 0.991 µM (active); in the assay on SK-OV-3, > 100 µM (inactive); in the assay on ACHN, > 100 µM (inactive).

Consider `CC(C)(C)c1cc2c3c(c1)c(=O)c1cccc4c(O)c5cccc(c2=O)c5c-3c41`, for which the GI50 in the assay with SF-295 is 60.1 µM (inactive); in the assay on CAKI-1, > 100 µM (inactive); with SF-539 it was 10 µM (inactive); with 786-0, 84.7 µM (inactive); with UO-31, > 100 µM (inactive); with OVCAR-3 it was 40.4 µM (inactive). In addition, the GI50 in the assay with IGROV-1 was > 100 µM (inactive); with A498, 99.1 µM (inactive); in the assay on U-251, 57.7 µM (inactive); in the assay on HL-60, 58.5 µM (inactive); with UACC-62, > 100 µM (inactive); with Malme-3M it was > 100 µM (inactive). Also, the GI50 was 34 µM (inactive) in the assay with RXF 393; > 100 µM (inactive) in the assay with SN12C; 0.0105 µM (active) in the assay with HCC 2998; > 100 µM (inactive) in the assay on SK-OV-3; > 100 µM (inactive) in the assay on ACHN.

`O=c1/c(=C/c2ccccc2[N+](=O)[O-])sc2nnc(-c3ccco3)n12`: the GI50 is 23.6 µM (inactive) with SF-295; 39.7 µM (inactive) with CAKI-1; 18.7 µM (inactive) in the assay with SF-539; 42 µM (inactive) in the assay with 786-0; 30.5 µM (inactive) in the assay on UO-31; 17.7 µM (inactive) with OVCAR-3. The GI50 in the assay with IGROV-1 was 25.1 µM (inactive); in the assay on A498, > 100 µM (inactive); in the assay with U-251 it was 21.2 µM (inactive); with HL-60, 24.8 µM (inactive); in the assay on UACC-62, 25.8 µM (inactive); in the assay on Malme-3M it was 23 µM (inactive). Further, the GI50 in the assay on RXF 393 is 16.8 µM (inactive); with SN12C it was 34.5 µM (inactive); in the assay with HCC 2998, 22.4 µM (inactive); in the assay with SK-OV-3 it was 47.4 µM (inactive); with ACHN, 52.5 µM (inactive).

On to `O=C1c2cccc3cccc(c23)C(=O)N1CCCN1CCN(CCCN2C(=O)c3cccc4cccc(c34)C2=O)CC1`, for which the GI50 in the assay on SF-295, with CAKI-1, with SF-539, in the assay on 786-0, in the assay with UO-31 and with OVCAR-3 was > 100 µM (inactive) throughout. Besides, the GI50 in the assay on IGROV-1, in the assay with A498, in the assay on U-251, in the assay on HL-60, in the assay on UACC-62 and in the assay with Malme-3M was > 100 µM (inactive) in each case. The GI50 with RXF 393, with SN12C, in the assay with RPMI-8226, in the assay with HCC 2998, with SK-OV-3 and in the assay on ACHN was > 100 µM (inactive) throughout.

With `COc1nc(C(=O)O)c(Cl)c(OC)c1Cl`, the GI50 with SF-295, in the assay on CAKI-1, in the assay on SF-539, with 786-0, in the assay on UO-31 and in the assay on OVCAR-3 was > 100 µM (inactive) throughout. The GI50 in the assay on IGROV-1, with A498, in the assay with HL-60, in the assay with UACC-62, in the assay with Malme-3M and in the assay on RXF 393 was > 100 µM (inactive) each time. The GI50 in the assay on SN12C, in the assay on RPMI-8226, with HCC 2998, with SK-OV-3 and with ACHN was > 100 µM (inactive) in each case.

For `O=C(Nc1ccccc1[N+](=O)[O-])c1ccccc1`, the GI50 in the assay with SF-295 was > 100 µM (inactive); in the assay on CAKI-1 it was > 100 µM (inactive); in the assay on SF-539, > 100 µM (inactive); in the assay on 786-0, > 100 µM (inactive); in the assay with UO-31, 61.7 µM (inactive); in the assay with OVCAR-3, > 100 µM (inactive). The GI50 with IGROV-1, with A498, with U-251, in the assay on HL-60, in the assay with UACC-62 and in the assay with Malme-3M was > 100 µM (inactive) throughout. Besides, the GI50 with RXF 393 is 37.3 µM (inactive); with SN12C, > 100 µM (inactive); with RPMI-8226, 80.9 µM (inactive); in the assay on HCC 2998, > 100 µM (inactive); in the assay on SK-OV-3 it was > 100 µM (inactive); in the assay on ACHN, > 100 µM (inactive).

On to `NNC(=O)C(=O)NN=C(C(Cl)(Cl)CO)C(Cl)(Cl)CO`, for which the GI50 was 66.1 µM (inactive) in the assay with SF-295; 26.9 µM (inactive) with CAKI-1; 25.2 µM (inactive) in the assay with SF-539; 36.4 µM (inactive) in the assay with 786-0; 45.7 µM (inactive) in the assay on UO-31; 25.6 µM (inactive) with OVCAR-3. Also, the GI50 is > 100 µM (inactive) with IGROV-1; > 100 µM (inactive) in the assay with A498; 19.5 µM (inactive) in the assay with U-251; 22.1 µM (inactive) in the assay on HL-60; 65.5 µM (inactive) in the assay with UACC-62; 19.8 µM (inactive) in the assay with Malme-3M. Besides, the GI50 is 21.9 µM (inactive) in the assay on RXF 393; > 100 µM (inactive) in the assay on SN12C; 27.4 µM (inactive) in the assay with RPMI-8226; 31 µM (inactive) with HCC 2998; > 100 µM (inactive) in the assay with SK-OV-3; 31.3 µM (inactive) with ACHN.

Consider `CC(=O)OCC1OC(n2ccc(=O)[nH]c2=O)C(OC(C)=O)C(OC(C)=O)C1OC(C)=O` (stereo unspecified), for which the GI50 in the assay with SF-295, with CAKI-1, in the assay with 786-0, in the assay on UO-31, in the assay with OVCAR-3 and with IGROV-1 was > 100 µM (inactive) throughout. In addition, the GI50 in the assay on A498 was > 100 µM (inactive); with U-251, > 100 µM (inactive); with HL-60 it was > 10 µM (inactive); in the assay on UACC-62, > 100 µM (inactive); in the assay on Malme-3M it was > 100 µM (inactive); in the assay on RXF 393 it was > 100 µM (inactive). The GI50 in the assay on SN12C, with RPMI-8226, in the assay with HCC 2998, in the assay on SK-OV-3 and in the assay on ACHN was > 100 µM (inactive) each time.
